In patent US10077261B2, “Imidazolin-5-one derivative useful as FASN inhibitors for the treatment of cancer” (Janssen Pharmaceutica NV, priority 2012, dated 2018):

Legend:
[1] = target: T1, hFASN enzyme (full length) (Homo sapiens, UniProt P49327); assay: Fatty Acid Synthase (FASN) inhibition scintillation proximity assay; type: biochemical; settings: for inhibition at 10 µM: read-out: Human FASN % inhibition @ 10 μM, 10 μM test compound; for IC50: read-out: Human FASN pIC50 (converted)
T1 construct: 10 μL hFASN enzyme (full length, 300 ng, purified in house); made in house
Outline: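 Proximity read-out: hydrophobic ^3H-palmitate formed from ^3H-acetyl-CoA and malonyl-CoA binds streptavidin imaging beads, imaged at 610±20 nm at least 24 h after stopping. Enzyme was in-house purified full-length hFASN, 300 ng, in pH 7.5 phosphate/DTT buffer; compound series 30 μM down to 0.01 μM, normalized to controls, 4-parameter fit.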

A2780 ovarian cells [2] = assay: A2780 ovarian cell proliferation assay in lipid reduced medium, without palmitate (MTT); type: cell-based; settings: Homo sapiens, A2780, 96 h; read-out: pIC50 A2780 Ovarian Cell, Without Palmitate (converted)
A2780 ovarian cells [3] = assay: A2780 ovarian cell proliferation assay in lipid reduced medium, with palmitate (MTT); type: cell-based; settings: Homo sapiens, A2780, 96 h; read-out: pIC50 A2780 Ovarian Cell, With Palmitate (converted)
Outline: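 In this palmitate-supplemented format, compound dilutions (30 μM down to 0.01 μM) are added to cells in lipid-reduced serum with 25 μM palmitate, 0.2% fatty-acid-free BSA and 0.25% ethanol. After four days (96 h) MTT absorbance at 544 nm is recorded and fitted by minimum sum of squares.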

[4] = target: Fatty Acid Synthase Keto-reductase Domain (FASN KR) (Homo sapiens, UniProt P49327); assay: Fatty Acid Synthase keto-reductase domain (FASN KR) inhibition, NADPH oxidation at 340 nm
Sequence of Fatty Acid Synthase Keto-reductase Domain (FASN KR) (P49327 whole entry, the tested form may be a part): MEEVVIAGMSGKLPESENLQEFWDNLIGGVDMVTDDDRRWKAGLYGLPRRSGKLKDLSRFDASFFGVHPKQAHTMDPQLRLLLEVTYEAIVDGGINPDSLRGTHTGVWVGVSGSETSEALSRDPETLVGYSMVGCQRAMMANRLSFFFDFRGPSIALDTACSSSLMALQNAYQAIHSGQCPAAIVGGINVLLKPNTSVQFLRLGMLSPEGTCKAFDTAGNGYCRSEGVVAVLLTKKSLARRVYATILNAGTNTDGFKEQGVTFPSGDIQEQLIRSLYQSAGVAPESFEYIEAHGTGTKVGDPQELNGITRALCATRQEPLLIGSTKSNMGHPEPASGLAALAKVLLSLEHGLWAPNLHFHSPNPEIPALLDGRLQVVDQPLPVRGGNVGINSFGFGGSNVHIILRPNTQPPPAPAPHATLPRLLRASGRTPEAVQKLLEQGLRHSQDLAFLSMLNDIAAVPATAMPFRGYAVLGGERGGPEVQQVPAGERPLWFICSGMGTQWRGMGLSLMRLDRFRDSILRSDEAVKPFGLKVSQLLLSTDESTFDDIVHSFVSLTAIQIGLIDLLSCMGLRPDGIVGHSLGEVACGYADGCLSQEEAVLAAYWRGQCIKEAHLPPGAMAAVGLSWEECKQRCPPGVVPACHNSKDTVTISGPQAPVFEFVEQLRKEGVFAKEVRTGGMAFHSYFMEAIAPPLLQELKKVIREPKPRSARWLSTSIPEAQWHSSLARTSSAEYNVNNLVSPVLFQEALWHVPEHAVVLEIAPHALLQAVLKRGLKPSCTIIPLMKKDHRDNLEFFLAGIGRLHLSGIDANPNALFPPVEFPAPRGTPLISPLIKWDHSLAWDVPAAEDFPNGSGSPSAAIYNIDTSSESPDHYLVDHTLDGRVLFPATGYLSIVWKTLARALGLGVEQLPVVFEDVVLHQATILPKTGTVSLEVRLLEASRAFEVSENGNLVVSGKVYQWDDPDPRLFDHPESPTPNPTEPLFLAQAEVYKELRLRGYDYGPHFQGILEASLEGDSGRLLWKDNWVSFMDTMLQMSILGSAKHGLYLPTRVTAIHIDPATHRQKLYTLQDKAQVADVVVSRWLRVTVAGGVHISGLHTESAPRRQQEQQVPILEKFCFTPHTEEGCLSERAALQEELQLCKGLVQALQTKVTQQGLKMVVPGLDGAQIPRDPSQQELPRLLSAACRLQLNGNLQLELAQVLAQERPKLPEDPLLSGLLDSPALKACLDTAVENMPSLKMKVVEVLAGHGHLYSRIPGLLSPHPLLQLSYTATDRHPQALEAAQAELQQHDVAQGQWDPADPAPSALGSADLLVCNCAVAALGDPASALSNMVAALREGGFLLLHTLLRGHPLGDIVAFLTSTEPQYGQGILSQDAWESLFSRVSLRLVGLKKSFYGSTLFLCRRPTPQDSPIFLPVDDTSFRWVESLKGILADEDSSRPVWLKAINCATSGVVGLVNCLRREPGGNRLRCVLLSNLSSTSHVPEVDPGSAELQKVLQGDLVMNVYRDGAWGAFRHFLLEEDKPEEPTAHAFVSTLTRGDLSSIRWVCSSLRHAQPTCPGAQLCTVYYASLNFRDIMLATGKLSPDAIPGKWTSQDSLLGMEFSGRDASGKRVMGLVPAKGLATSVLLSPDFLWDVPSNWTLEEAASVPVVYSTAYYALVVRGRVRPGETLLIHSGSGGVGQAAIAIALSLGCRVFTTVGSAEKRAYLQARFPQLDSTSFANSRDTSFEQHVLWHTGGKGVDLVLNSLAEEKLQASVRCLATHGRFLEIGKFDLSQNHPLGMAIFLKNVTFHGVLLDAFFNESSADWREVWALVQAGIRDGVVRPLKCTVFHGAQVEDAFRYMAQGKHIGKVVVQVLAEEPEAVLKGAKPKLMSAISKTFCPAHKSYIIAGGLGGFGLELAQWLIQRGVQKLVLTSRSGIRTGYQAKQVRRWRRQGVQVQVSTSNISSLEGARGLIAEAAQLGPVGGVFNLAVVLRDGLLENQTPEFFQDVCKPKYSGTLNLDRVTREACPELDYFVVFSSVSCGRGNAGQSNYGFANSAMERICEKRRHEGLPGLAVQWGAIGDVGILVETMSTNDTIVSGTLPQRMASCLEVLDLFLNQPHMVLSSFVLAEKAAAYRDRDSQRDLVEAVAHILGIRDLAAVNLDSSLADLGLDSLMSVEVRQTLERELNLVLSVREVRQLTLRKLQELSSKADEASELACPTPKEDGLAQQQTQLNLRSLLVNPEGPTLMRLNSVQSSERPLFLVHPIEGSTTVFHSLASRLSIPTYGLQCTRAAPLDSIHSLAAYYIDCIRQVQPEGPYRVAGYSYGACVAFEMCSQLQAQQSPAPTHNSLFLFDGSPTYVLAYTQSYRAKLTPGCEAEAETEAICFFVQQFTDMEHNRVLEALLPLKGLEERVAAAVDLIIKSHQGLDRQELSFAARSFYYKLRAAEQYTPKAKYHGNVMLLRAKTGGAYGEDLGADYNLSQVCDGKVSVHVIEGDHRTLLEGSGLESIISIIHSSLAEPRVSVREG
Experimental: After 20 minutes incubation at room temperature the plate was measured again (T2).
The decrease in absorbance was calculated as (Absorbance before incubation T1)−(Absorbance following incubation T2).
A plot of Controlmin versus test compound concentration was fitted to a 4-parameter logistic curve using a non-linear least squares regression method.

T1 sequence (P49327 whole entry): as the sequence (P49327 whole entry, the tested form may be a part) above

Compound	inhibition at 10 µM [1]	IC50 [1]	IC50 (A2780 ovarian cells [2])	IC50 (A2780 ovarian cells [3])	IC50 [4]
O=C(C1CC1)N1CC(CN2C(=O)C3(CC3)N=C2c2ccc(-c3ccc4ocnc4c3)cc2)C1 [compound 52, 5-[4-(1,3-Benzoxazol-5-yl)phenyl]-6-{[1-(cyclopropylcarbonyl)azetidin-3-yl]methyl}-4,6-diazaspiro[2.4]hept-4-en-7-one]	89.9%	759 nM	1860 nM	> 10000 nM	1780 nM
O=C(C1CC1)N1CC[C@@H](CN2C(=O)C3(CCCC3)N=C2c2ccc(-c3ccc4ccncc4c3)cc2)C1 [compound 69, 3-{[(3R)-1-(Cyclopropylcarbonyl)pyrrolidin-3-yl]methyl}-2-(4-isoquinolin-7-ylphenyl)-1,3-diazaspiro[4.4]non-1-en-4-one]	100%	224 nM	1150 nM	> 10000 nM	851 nM
C=CC(=O)N1CC[C@@H](CN2C(=O)C3(CCN(Cc4ccccc4)CC3)N=C2c2ccc(-c3ccc4occc4c3)cc2)C1 [compound 90, 3-{[(3R)-1-Acryloylpyrrolidin-3-yl]methyl}-2-[4-(1-benzofuran-5-yl)phenyl]-8-benzyl-1,3,8-triazaspiro[4.5]dec-1-en-4-one]	101%	309 nM	6310 nM	> 10000 nM	1350 nM
Cc1cc(-c2ccc3cnccc3c2)ccc1C1=NC2(CCCC2)C(=O)N1C[C@@H]1CCN(C(=O)C2CC2)C1 [compound 74, 3-{[(3R)-1-(cyclopropylcarbonyl)pyrrolidin-3-yl]methyl}-2-(4-isoquinolin-6-yl-2-methylphenyl)-1,3-diazaspiro[4.4]non-1-en-4-one]	114%	22.4 nM	8.71 nM	> 10000 nM	60.3 nM
O=C(C1CC1)N1CC[C@@H](CN2C(=O)C3(CCCC3)N=C2c2ccc(-c3nc4ccccc4o3)cc2)C1 [compound 36, 2-[4-(1,3-Benzoxazol-2-yl)phenyl]-3-{[(3R)-1-(cyclopropylcarbonyl)pyrrolidin-3-yl]methyl}-1,3-diazaspiro[4.4]non-1-en-4-one]	96.2%	550 nM	3470 nM	> 10000 nM	1410 nM
Cc1cc2cc(-c3ccc(C4=NC5(CC5)C(=O)N4C[C@@H]4CCN(C(=O)C5CC5)C4)cc3F)ccc2o1 [compound 387, 6-{[(3R)-1-(Cyclopropylcarbonyl)pyrrolidin-3-yl]methyl}-5-[3-fluoro-4-(2-methyl-1-benzofuran-5-yl)phenyl]-4,6-diazaspiro[2.4]hept-4-en-7-one]	103%	219 nM	~3240 nM	> 10000 nM	759 nM
O=C(C1CC1)N1CC[C@@H](CN2C(=O)C3(CC3)N=C2c2ccc(-c3cccc(F)c3)cc2)C1 [compound 102, 6-{[(3R)-1-(Cyclopropylcarbonyl)pyrrolidin-3-yl]methyl}-5-(3′-fluorobiphenyl-4-yl)-4,6-diazaspiro[2.4]hept-4-en-7-one]	107%	209 nM	2290 nM	> 10000 nM	1070 nM
O=C(C1CC1)N1CCC(CN2C(=O)C3(CCCC3)N=C2c2ccc(-c3ccc4cnccc4c3)cc2)CC1 [compound 77, 3-{[1-(Cyclopropylcarbonyl)piperidin-4-yl]methyl}-2-(4-isoquinolin-6-ylphenyl)-1,3-diazaspiro[4.4]non-1-en-4-one]	103%	174 nM	661 nM	> 10000 nM	871 nM
O=C(C1CC1)N1CCC(CN2C(=O)C3(CC3)N=C2c2ccc(-c3ccc4[nH]ccc4c3)cc2)CC1 [compound 10, 6-{[1-(Cyclopropylcarbonyl)piperidin-4-yl]methyl}-5-[4-(1H-indol-5-yl)phenyl]-4,6-diazaspiro[2.4]hept-4-en-7-one]	89.7%	204 nM	871 nM	> 10000 nM	501 nM
CC(C)N1CCC2(CC1)N=C(c1ccc(-c3ccc4[nH]ncc4c3)cc1)N(C[C@@H]1CCN(C(=O)C3CC3)C1)C2=O [compound 743, 3-{[(3R)-1-(Cyclopropylcarbonyl)pyrrolidin-3-yl]methyl}-2-[4-(1H-indazol-5-yl)phenyl]-8-(1-methylethyl)-1,3,8-triazaspiro[4.5]dec-1-en-4-one]	90%	708 nM	2090 nM	> 10000 nM	1580 nM
Cc1cccc(-c2ccc(C3=NC4(CC4)C(=O)N3C[C@@H]3CCN(C(=O)C4CC4)C3)cc2)c1 [compound 101, 6-{[(3R)-1-(Cyclopropylcarbonyl)pyrrolidin-3-yl]methyl}-5-(3′-methylbiphenyl-4-yl)-4,6-diazaspiro[2.4]hept-4-en-7-one]	112%	81.3 nM	1700 nM	> 10000 nM	380 nM
O=C(C1CC1)N1CC(CN2C(=O)C3(CC3)N=C2c2ccc(-c3ccc4sccc4c3)c(F)c2)C1 [compound 404, 5-[4-(1-Benzothiophen-5-yl)-3-fluorophenyl]-6-{[1-(cyclopropylcarbonyl)azetidin-3-yl]methyl}-4,6-diazaspiro[2.4]hept-4-en-7-one]	97%	178 nM	1100 nM	> 10000 nM	490 nM
Cc1cc(-c2ccc(Cl)cc2)ccc1C1=NC2(CCCC2)C(=O)N1C[C@@H]1CCN(C(=O)C2CC2)C1 [compound 93, 2-(4′-Chloro-3-methylbiphenyl-4-yl)-3-{[(3R)-1-(cyclopropylcarbonyl)pyrrolidin-3-yl]methyl}-1,3-diazaspiro[4.4]non-1-en-4-one]	116%	75.9 nM	~2090 nM	> 10000 nM	263 nM
O=C(N1CC[C@@H](CN2C(=O)C3(CCCC3)N=C2c2ccc(-c3ccc4occc4c3)cc2)C1)C1(O)CC1 [compound 878, (R)-2-(4-(benzofuran-5-yl)phenyl)-3-((1-(1-hydroxycyclopropanecarbonyl)pyrrolidin-3-yl)methyl)-1,3-diazaspiro[4.4]non-1-en-4-one]	113%	36.3 nM	~93.3 nM	> 10000 nM	60.3 nM
O=C(C1CC1)N1CC[C@@H](CN2C(=O)C3(CCNCC3)N=C2c2ccc(-c3ccc4cnccc4c3)cc2)C1 [compound 106, 3-{[(3R)-1-(Cyclopropylcarbonyl)pyrrolidin-3-yl]methyl}-2-(4-isoquinolin-6-ylphenyl)-1,3,8-triazaspiro[4.5]dec-1-en-4-one]	110%	112 nM	741 nM	> 10000 nM	603 nM
Cn1ncc2ccc(-c3ccc(C4=NC5(CCCC5)C(=O)N4C[C@@H]4CCN(C(=O)C5CC5)C4)cc3)cc21 [compound 34, 3-{[(3R)-1-(Cyclopropylcarbonyl)pyrrolidin-3-yl]methyl}-2-[4-(1-methyl-1H-indazol-6-yl)phenyl]-1,3-diazaspiro[4.4]non-1-en-4-one]	102%	117 nM	776 nM	> 10000 nM	355 nM
